Results published in paper PMC7617969, “Carboxylic Acid Bioisosteres Boost Nurr1 Agonist Selectivity” (Journal of medicinal chemistry, 2025).

How the values were obtained:
Nurr1 = target: T1, Nurr1 (Homo sapiens, UniProt P43354); assay: Gal4-Nurr1 hybrid reporter gene assay; type: cell-based; conditions: for EC50 / max. activation (Nurr1): Gal4-Nurr1 hybrid reporter gene assay; for EC50: HEK293T cells, mean ± S.E.M., n ≥ 3; for max. activation (Nurr1): fold activation vs untreated control; for selectivity index DHODH/Nurr1: IC50(DHODH) / EC50(Nurr1); for efficacy_NR4A2: supplementary csv, max. activation in %
T1 construct: expressed in transfected cells; host or cells: HEK293T
T1 sequence (P43354 360-595 limits assumed): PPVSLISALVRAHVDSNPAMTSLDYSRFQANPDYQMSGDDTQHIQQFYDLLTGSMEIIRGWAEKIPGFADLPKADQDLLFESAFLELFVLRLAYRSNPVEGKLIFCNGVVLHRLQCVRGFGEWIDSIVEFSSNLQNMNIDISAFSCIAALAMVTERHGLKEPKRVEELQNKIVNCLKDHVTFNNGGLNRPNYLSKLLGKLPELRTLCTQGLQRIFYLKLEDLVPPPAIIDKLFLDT

DHODH = target: T2, DHODH (Homo sapiens, UniProt Q02127); assay: DHODH inhibition colorimetric assay on recombinant human protein; type: biochemical; conditions: recombinant human DHODH; for IC50: colorimetric, mean ± S.E.M., n ≥ 3, read-out: IC50 (DHODH)
T2 construct: using an N-terminally truncated recombinant DHODH enzyme as described previously[20]
T2 sequence (Q02127 31-395): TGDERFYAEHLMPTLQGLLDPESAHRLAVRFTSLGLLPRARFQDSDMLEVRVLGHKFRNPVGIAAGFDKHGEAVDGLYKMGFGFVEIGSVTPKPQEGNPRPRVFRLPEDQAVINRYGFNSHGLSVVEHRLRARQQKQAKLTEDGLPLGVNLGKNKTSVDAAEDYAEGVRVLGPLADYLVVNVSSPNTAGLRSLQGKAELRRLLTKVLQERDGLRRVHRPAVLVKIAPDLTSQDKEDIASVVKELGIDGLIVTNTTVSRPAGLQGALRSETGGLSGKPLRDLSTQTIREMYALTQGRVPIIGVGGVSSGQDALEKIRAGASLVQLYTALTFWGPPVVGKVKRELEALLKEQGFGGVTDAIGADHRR

| SMILES | EC50 (Nurr1) | max. activation (Nurr1) (Nurr1) | selectivity index DHODH/Nurr1 (Nurr1) | efficacy_NR4A2 (Nurr1) | IC50 (DHODH) | inhibition at 100 µM (DHODH; 100 μM) | Nurr1 preference/selectivity over DHODH (Nurr1) |
| --- | --- | --- | --- | --- | --- | --- | --- |
| [2H]C([2H])([2H])Oc1cccc(-c2c(F)c(F)c(NC(=O)c3cscc3-c3nn[nH]n3)c(F)c2F)c1 [compound 22, N-{2,3,5,6-Tetrafluoro-3’-(^2H3)methoxy-[1,1'-biphenyl]-4-yl}-4-(2H-tetrazol-5-yl)thiophene-3-carboxamide] | 11 ± 2 nM | 2.5±0.2 fold | 3.9 | 250% | 43 ± 6 nM |  |  |
| [2H]C([2H])([2H])Oc1cccc(-c2c(F)c(F)c(NC(=O)c3cscc3-c3noc(=S)[nH]3)c(F)c2F)c1 [compound 23, N-{2,3,5,6-Tetrafluoro-3’-(^2H3)methoxy-[1,1'-biphenyl]-4-yl}-4-(5-thioxo-4,5-dihydro-1,2,4-oxadiazol-3-yl)thiophene-carboxamide] | 36 ± 3 nM | 1.77±0.04 fold | 1.7 | 177% | 62 ± 4 nM |  |  |
| [2H]C([2H])([2H])Oc1cccc(-c2c(F)c(F)c(NC(=O)c3cscc3-c3nc(=O)on3C)c(F)c2F)c1 [compound 24, 4-(2-Methyl-5-oxo-2,5-dihydro-1,2,4-oxadiazol-3-yl)-N-{2,3,5,6-tetrafluoro-3’-(^2H3)methoxy-[1,1'-biphenyl]-4-yl}thiophene-3-carboxamide] | 2600 ± 300 nM | 1.9±0.2 fold | 4.2 | 190% | 11100 ± 600 nM |  |  |
| [2H]C([2H])([2H])Oc1cccc(-c2c(F)c(F)c(NC(=O)c3cscc3-c3nc(=S)on3C)c(F)c2F)c1 [compound 25, 4-(2-Methyl-5-thioxo-2,5-dihydro-1,2,4-oxadiazol-3-yl)-N-{2,3,5,6-tetrafluoro-3’-(^2H3)methoxy-[1,1'-biphenyl]-4-yl}thiophene-3-carboxamide] | 900 ± 100 nM | 2.3±0.2 fold | >100 | 230% |  | 40 ± 8% |  |
| [2H]C([2H])([2H])Oc1cccc(-c2c(F)c(F)c(NC(=O)c3cscc3-c3n[nH]c(=O)o3)c(F)c2F)c1 [compound 26, 4-(5-Oxo-4,5-dihydro-1,3,4-oxadiazol-2-yl)-N-{2,3,5,6-tetrafluoro-3’-(^2H3)methoxy-[1,1'-biphenyl]-4-yl}thiophene-3-carboxamide] | 17 ± 2 nM | 1.8±0.1 fold | 5.9 | 180% | 100 ± 10 nM |  |  |
| [2H]C([2H])([2H])Oc1cccc(-c2c(F)c(F)c(NC(=O)c3cscc3-c3n[nH]c(=S)o3)c(F)c2F)c1 [compound 27, N-(2,3,5,6-Tetrafluoro-3’-(^2H3)methoxy-[1,1'-biphenyl]-4-yl)-4-{5-thioxo-4,5-dihydro-1,3,4-oxadiazol-2-yl}thiophene-3-carboxamide] | 160 ± 50 nM | 1.7±0.1 fold | 6.0 | 170% | 960 ± 90 nM |  |  |
| [2H]C([2H])([2H])Oc1cccc(-c2c(F)c(F)c(NC(=O)c3cscc3C3=NOS(=O)N3)c(F)c2F)c1 (stereo not drawn) [compound 28, 4-(2-Oxido-3H-1,2,3,5-oxathiadiazol-4-yl)-N-{2,3,5,6-tetrafluoro-3’-(^2H3)methoxy-[1,1'-biphenyl]-4-yl}thiophene-3-carboxamide] | 39 ± 5 nM | 2.4±0.1 fold | 30 | 240% | 1200 ± 200 nM |  |  |
| [2H]C([2H])([2H])Oc1cccc(-c2c(F)c(F)c(NC(=O)C3=C(C(=O)O)COC3)c(F)c2F)c1 [compound 29] |  | 2.5±0.1 fold |  | 250% |  |  |  |
| [2H]C([2H])([2H])Oc1cccc(-c2c(F)c(F)c(NC(=O)C3=C(c4nn[nH]n4)COC3)c(F)c2F)c1 [compound 30, N-{2,3,5,6-Tetrafluoro-3’-(^2H3)methoxy-[1,1'-biphenyl]-4-yl}-4-(2H-tetrazol-5-yl)-2,5-dihydrofuran-3-carboxamide] | 220 nM | 2.0±0.2 fold | 13.6 | 200% | 3000 ± 1000 nM |  | 14 fold |
| [2H]C([2H])([2H])Oc1cccc(-c2c(F)c(F)c(NC(=O)c3ccccc3-c3nn[nH]n3)c(F)c2F)c1 [compound 31, N-{2,3,5,6-Tetrafluoro-3’-(^2H3)methoxy-[1,1'-biphenyl]-4-yl}-2-(2H-tetrazol-5-yl)benzamide] | 140 ± 10 nM | 1.9±0.1 fold | 1.9 | 190% | 260 ± 40 nM |  |  |
